# In publication PMC9732821, “Neurotrophic Activity and Its Modulation by Zinc Ion of a Dimeric Peptide Mimicking the Brain-Derived Neurotrophic Factor N-Terminal Region” (ACS Chemical Neuroscience, 2022):
# What was measured:
# [1] = test system: undifferentiated cells; details: cited from earlier work
# Excerpt: Previous functional studies agree in identifying the N-terminal region as a pivotal NT domain for the binding selectivity and activation of Trks.[25]−[27] However, most of these information were obtained from the NGF-TrkA system.[28],[29] On the other hand, the BDNF N-terminal region has been less investigated. […] Mo ...
# [2] = test system: SH-SY5Y cells; experiment: RT-PCR gene expression analysis of differentiated SH-SY5Y cells; format: cell-based, human; details: RT-PCR mRNA, four replicas, two independent experiments
# Excerpt: Figure 4 Neuronal differentiation and polarization genes stimulated by BDNF and d-bdnf mimetic peptide. (A) Schematic timeline of the experiment. As non-differentiated control, we used untreated cells seeded at the same density (non-diff ctrl, white bars). As a control for the expression of neuronal polarization genes, we used cells stopped at d5 (non-pol ctrl). (B) RT-PCR analysis of the mRNA expression levels of neuronal differentiation markers (NTRK2, LAMC1, and NEFM) and polarization markers (GAP43, MAP2, and MAPT) induced by BDNF and d-bdnf with respect to non-diff and non-pol ctrl samples, respectively. Data are expressed as fold changes with respect to the average ctrl value set to 1, and the mean ± SEM of four replicas from two independent experiments are reported (****p < 0.0001, ***p < 0.001, **p < 0.01, and *p < 0.05 according to the one-way ANOVA with Bonferroni’s multiple comparison test).
# Figure 6 Modulation of d-bdnf neurotrophic activity by Zn^2+ ion. (A) Neurite outgrowth assay for d-bdnf-Zn^2+ conjugate. The ctrl and d-bdnf samples are the same as in Figure 2C, here reported as a reference. Data represent the mean ± SD of fields pooled from two independent replicas. (****p < 0.0001, according to the one-way ANOVA with Dunnett’s multiple comparison test). (B) RT-PCR analysis of the mRNA expression levels of the marker genes (as described in Figure 3B). Data are expressed as fold changes with respect to the average ctrl value set to 1, and the mean ± SEM of four replicas from two independent experiments are reported (**p < 0.01, *p < 0.05, vs ctrl; #p < 0.05 vs d-bdnf, according to one-way ANOVA with Bonferroni’s multiple comparison test). […]
# RT-PCR analysis of SH-SY5Y differentiation
# At the end of each differentiation treatment and relative controls, cells were col lected, and total RNA was extracted using the Rneasy Mini Kit (Qiagen). The RNA concentration and purity were checked at the Nanodrop instrument (Thermofisher). cDNA synthesis was performed with 1 µg of RNA using i-Script cDNA synthesis kit (BioRad). Real-time PCR reactions consisted of 10 µL of SsoAdvanced™ Universal SYBR® Green Supermix - Bio-Rad, 0.5 µL of both 10 µM forward and reverse primers, 5 µL of cDNA (50 ng), and 4 µL of H2O. The primer sequences and the product size […]
# HPRT1 and NEFM primers were purchased by Biorad (qHsaCID0016375 and qHsaCED0043021, Bio-Rad). The mRNA levels for each sample were normalized against GAPDH and HPRT1 mRNA levels, and the relative expression was calculated by using the methods of the […]
# [3] = potentiometric titration, protonation constants; format: physicochemical; details: 298 K
# Procedure: Potentiometric measurements were carried out to give insight into the coordination environment of Zn^2+ bound to the d-bdnf peptide (Figure S5). […] The four protonation equilibria of the aspartic and glutamic residues partly overlap but, in agreement with the literature data, the aspartic β-carboxylic group is more acidic than glutamic γ-carboxylic one.[48] The potentiometric titrations were carried out exploring 0.9:1 and 2.2:1 metal to ligand molar ratio. […] The peptide forms two complex species, [ZnLH] and [ZnL]. The first one is the predominant at pH = 6, and the calculated stability constant value [logK(111) = logβ(111) – logK(011) = 5.71] indicates the involvement of three nitrogen atoms in the metal coordination environment. The [ZnL] species display a stability constant value, logβ = 7.15, higher than that of protonated species indicative of the involvement of a further nitrogen atom in the metal binding mode. In this complex species, Zn^2+ is bound to four nitrogen atoms with the involvement of two amino and two imidazole (2NH2,2NIm coordination mode). […]
# Potentiometric measurements
# Potentiometric titrations were carried out on a Titrando 905 automatic, using a combined glass-Ag/AgCl electrode (Metrohm, Switzerland). Solutions (2.0 mL) were thermostated at 298 K and in argon atmosphere. The ionic strength was 0.1 M in KNO3. A 0.1 M solution of KOH was used to titrate solutions containing either the peptides only (protonation constants) or the peptides with Zn2+ (complexation constants). The peptide concentrations range used was 1-2 mM in both series of experiments. At least three independent titrations were performed. Starting pH value was adjusted to 2.4 by adding HNO3 0.2 M. The titrations were carried out up to pH 8.5. Metal ion/ligand ratios between 0.9:1 and 2.2:1 were employed. To avoid systematic errors and verify reproducibility, the EMF values of each experiment were recorded at different time intervals. The data were analyzed by […]
# using HYPERQUAD 2003 program 17. […]
# [4] = species LH 12 (NH2), 0.1 M KNO3
# [5] = species LH 13 (His), 0.1 M KNO3
# [6] = species LH 14 (His), 0.1 M KNO3
# [7] = species LH 15 (COO), 0.1 M KNO3
# [8] = species LH 16 (COO), 0.1 M KNO3
# [9] = species LH 17 (COO), 0.1 M KNO3
# [10] = species LH 18 (COO), 0.1 M KNO3
substance,measurement,setting,value
"HSDPARRGELSV-NH2 [m-bdnf, linear peptide fragment encompassing the first 12 amino acids of the mature NT N-terminal]",proliferative capacity,[1],displays proliferative capacity in undifferentiated cells
HSDPARRGELSVC-C-VSLEGRRAPDSH (disulfide) [d-bdnf],MAPT expression,"[2]; axon marker, d-bdnf vs BDNF",to a similar extent to BDNF
same,MAP2 expression,"[2]; dendrite marker, d-bdnf vs BDNF",to a similar extent to BDNF
same,LAMC1 expression,[2]; d-bdnf vs BDNF,"to promote, to a similar extent of BDNF, the expression of NTRK2 and LAMC1 genes"
same,NTRK2 expression,[2]; d-bdnf vs BDNF,"to promote, to a similar extent of BDNF, the expression of NTRK2 and LAMC1 genes"
same,GAP43 gene expression,[2],not significantly increased by either the d-bdnf doses tested
same,NEFM gene expression,[2],significantly increased only at the highest d-bdnf dose (10 μM)
same,"logk (stepwise protonation, pK)","[3]; species LH 11 (NH2), 0.1 M KNO3",7.59
same,log (protonation constant),"[3]; species LH 11 (NH2), 0.1 M KNO3, at least three titrations",7.59
same,log (protonation constant),[3]; [4],14.75
same,"logk (stepwise protonation, pK)",[3]; [4],7.16
same,log (protonation constant),[3]; [5],20.71
same,"logk (stepwise protonation, pK)",[3]; [5],5.96
same,log (protonation constant),[3]; [6],26.03
same,"logk (stepwise protonation, pK)",[3]; [6],5.32
same,log (protonation constant),[3]; [7],30.69
same,"logk (stepwise protonation, pK)",[3]; [7],4.66
same,log (protonation constant),[3]; [8],34.90
same,"logk (stepwise protonation, pK)",[3]; [8],4.20
same,log (protonation constant),[3]; [9],38.44
same,"logk (stepwise protonation, pK)",[3]; [9],3.55
same,log (protonation constant),[3]; [10],41.75
same,"logk (stepwise protonation, pK)",[3]; [10],3.31
